Experimental findings from patent US12104170B2, “Methods for deriving dopaminergic neurons from pluripotent stem cells” (MINERVA BIOTECHNOLOGIES CORPORATION, priority 2020, dated 2024) are described below.

For assay [1], the system named is human iPS cells differentiating to dopaminergic neurons. The assay can be described thus: Addition of forms of vitamin B6 or vitamin A around Day 20 of differentiation (morphology, markers, neural projections). Conditions: for empirically determined optimal concentration: added around Day 20 and onward, final concentration; for effect of adding vitamin B6 form on dopaminergic neurons: added starting around Day 21, retinol, retinyl acetate and vitamin C in all conditions (FIG. 16). It counts as cell-based.
Method: In this next set of experiments, we followed Protocol A, except that around Day 20, the neural base media will be exchanged for one that contains approximately 1.2 uM retinol and 0.17 uM retinyl acetate and various other forms of vitamin B6 were then added (FIG. 1, Example 2). Resultant cells were analyzed for cell morphology, yield of TH and DAT positive cells relative to Tuj1 positivity and the number and length of neural projections as an indicator of engraftment potential.
We assessed the effects of various forms of vitamin B6 on differentiation of dopaminergic neurons from human iPS cells. […] The differentiation protocol called Protocol A (FIG. 1) was followed until Day 20. From Day 21 onward, to the basal media was added vitamin A in the form of retinol at 1.2 uM and retinyl acetate at 0.17 uM and vitamin C as ascorbic acid-2-phosphate at a final concentration of about 200 nM. It is important to note that the neural basal media that was used in all conditions contained 10 uM pyridoxal, so pyridoxal at this low concentration was present from the onset of differentiation.
In addition to the vitamins A and C which were constant throughout all conditions, various forms of vitamin B6 were added: 16 uM pyridoxine (FIG. 12A-12K), or 11 uM pyridoxal (FIG. 13A-13K), or 20 uM pyridoxal-5′-phosphate also known as PLP (FIG. 14A-14K), or all of the vitamin Bs. To assess the quality of the resultant dopaminergic neurons we examined: a) the percentage of the GIRK2 positive cells that were also positive for TH, Tyrosine hydroxylase which is an enzyme that mediates the conversion of L-tyrosine to L-3,4-dihydroxyphenylalanine, which is the rate limiting step in dopamine synthesis; this percentage should be high as an indicator of yield of the desired cell type -dopaminergic neurons; b) The percentage of TUJ positive neurons that were also TH positive; TUJ is a pleiotropic marker of neurons; only those that are TH positive are truly dopaminergic neurons; c) the percentage of the TUJ positive cells that are also positive for DAT, the dopamine transporter protein; d) the shape of the cell body should have the characteristic elongated triangular shape of neurons; and e) the length and number of neural projections associated with being TH and DAT positive. For engraftment, the length and number of neural projections is considered to be the most important factor.

The subject of assay [2] is human iPS cells differentiated to dopaminergic neurons. The assay can be described thus: Immunofluorescent staining for GIRK2, TH, DAT, Tuj1 and morphology (yield and purity of dopaminergic neurons). Conditions: iPSCs grown in E8 plus WNT3A for 48 hours before initiating differentiation. It counts as cell-based. How it is done:
On Day 24, immunofluorescent staining was performed to detect the presence of molecular markers of dopaminergic neuron progenitors generated using Protocol A (FIG. 2A-FIG. 2L) or Protocol C.2 (FIG. 3A-FIG. 3L). GIRK2 (G-protein-regulated inward-rectifier potassium channel 2) is expressed in dopaminergic neurons while Tuj1 (neuron-specific class Ill B-tubulin) is a pan-neural marker. TH (tyrosine hydroxylase) is considered a gold standard in the identification of dopaminergic neurons because it is an enzyme that catalyzes the conversion of L-tyrosine to L-3,4-dihydroxyphenylalanine, which is the rate limiting step in dopamine synthesis. DAT (dopamine active transporter) is equally important as it is the transmembrane protein that pumps dopamine from the synapse back into the cytosol. Both differentiation protocols produced cells that were positive for all appropriate molecular markers. […]
In addition to the vitamins A and C which were constant throughout all conditions, various forms of vitamin B6 were added: 16 uM pyridoxine (FIG. 12A-12K), or 11 uM pyridoxal (FIG. 13A-13K), or 20 uM pyridoxal-5′-phosphate also known as PLP (FIG. 14A-14K), or all of the vitamin Bs. […] FIG. 17 is a graph of the amount of dopamine and its metabolites, measured by HPLC, present in the conditioned media from only 200,000 cells taken at Day 30, Day 40, Day 50 or Day 60. […]

As for `Cc1ncc(CO)c(CO)c1O` [pyridoxine], in assay [1], the “empirically determined optimal concentration” value (from here on “empirically”) lay in the range of 10 to 20 µM.

Turning to `Cc1ncc(CO)c(C=O)c1O` [pyridoxal], in assay [1], the “empirically” value fell in the range of 5 to 20 µM; the “effect of adding vitamin B6 form on dopaminergic neurons” value was “greatly increase dopamine yield and engraftment potential”.

As to `Cc1ncc(COP(=O)(O)O)c(C=O)c1O` [pyridoxal-5′-phosphate], in assay [1], the “empirically” value was 10 to 40 µM; the “effect of adding vitamin B6 form on dopaminergic neurons” value was “greatly increase dopamine yield and engraftment potential”.

B1: WNT3A: beta-catenin agonist added to pluripotent stem cell media at 100 ng/mL for 48 hours before differentiation (protein, UniProt P56704 19-352, looked up)
Protein Wnt-3a: SYPIWWSLAVGPQYSSLGSQPILCASIPGLVPKQLRFCRNYVEIMPSVAEGIKIGIQECQHQFRGRRWNCTTVHDSLAIFGPVLDKATRESAFVHAIASAGVAFAVTRSCAEGTAAICGCSSRHQGSPGKGWKWGGCSEDIEFGGMVSREFADARENRPDARSAMNRHNNEAGRQAIASHMHLKCKCHGLSGSCEVKTCWWSQPDFRAIGDFLKDKYDSASEMVVEKHRESRGWVETLRPRYTYFKVPTERDLVYYEASPNFCEPNPETGSFGTRDRTCNVSSHGIDGCDLLCCGRGHNARAERRREKCRCVFHWCCYVSCQECTRVYDVHTCK
In the case of B1, in assay [2], the “survival of differentiating cells” value is reported as “increased survival at Day 60”.
